# “And” between values parts separate entries of the source, which are not always exact repeats. Identical values can stand only once.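 Test compounds were applied to cells in 96-well plates for 48 hours at 5 doses. GI50: concentration for 50% inhibition of growth. TGI: total growth inhibition.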
# Columns and labels:
# Test in all cases: DTP human tumour cell line panel, 48 h
# [1] = test system: NCI-H522 lung
# [2] = test system: SNB-78 CNS
# [3] = test system: SNB-75 CNS
# [4] = test system: SF-268 CNS
# [5] = test system: HOP-18 NSCLC
# [6] = test system: SK-OV-3 ovarian
# [7] = test system: SF-295 CNS
# [8] = test system: HCT-116 colon
# [9] = test system: UACC-257 melanoma
# [10] = test system: 786-0 renal
# [11] = test system: MALME-3M melanoma
# [12] = test system: IGROV1 ovarian
# [13] = test system: CCRF-CEM leukemia
# [14] = test system: SK-MEL-5 melanoma
# [15] = test system: NCI-H460 lung
# [16] = test system: RPMI-8226 leukemia
# [17] = test system: SW-620 colon
# [18] = test system: DLD-1 colon
# [19] = test system: SF-539 CNS
# [20] = test system: OVCAR-3 ovarian
# [21] = test system: UACC-62 melanoma
# [22] = test system: RXF 393 renal
# [23] = test system: XF 498 CNS
# [24] = test system: EKVX NSCLC
# [25] = test system: HT29 colon
# [26] = test system: KM12 colon
# [27] = test system: NCI-H226 lung
# [28] = test system: TK-10 renal
# [29] = test system: A498 renal
# [30] = test system: KM20L2 colon
# [31] = test system: CAKI-1 renal
# [32] = test system: DMS 273 small cell lung
# [33] = test system: LOX IMVI melanoma
# [34] = test system: SN12C renal
# [35] = test system: HL-60(TB) leukemia
# [36] = test system: LXFL 529 NSCLC
# [37] = test system: M19-MEL melanoma
# [38] = test system: M14 melanoma
# [39] = test system: SK-MEL-2 melanoma
# [40] = test system: A549 NSCLC
# [41] = test system: OVCAR-4 ovarian
# [42] = test system: COLO 205 colon
# [43] = test system: OVCAR-5 ovarian
# [44] = test system: HOP-92 NSCLC
# [45] = test system: HOP-62 NSCLC
# [46] = test system: MOLT-4 leukemia
# [47] = test system: UO-31 renal
# [48] = test system: SNB-19 CNS
# [49] = test system: K-562 leukemia
# [50] = test system: DMS 114 small cell lung
# [51] = test system: U251 CNS
# [52] = test system: OVCAR-8 ovarian
# [53] = test system: HCT-15 colon
# [54] = test system: NCI-H23 lung
# [55] = test system: SR leukemia
# [56] = test system: ACHN renal
# [57] = test system: SK-MEL-28 melanoma
# [58] = test system: MDA-N
# [59] = test system: MDA-MB-435
# [60] = test system: PC-3 prostate
# [61] = test system: MDA-MB-231 breast
# [62] = test system: NCI/ADR-RES ovarian
# [63] = test system: HCC-2998 colon
# [64] = test system: T-47D breast
# [65] = test system: HS 578T breast
# [66] = test system: MCF7 breast
# [67] = test system: DU-145 prostate
# [68] = test system: BT-549 breast
structure (smiles),measurement,setting,value
Cc1cc(C(C)(C)C)cc(Cc2cc(C(C)(C)C)cc(Cc3cc(C(C)(C)C)cc(C)c3O)c2O)c1O,TGI,[1],13.2 µM
same,TGI,[2],17.9 µM
same,TGI,[3],15.5 µM
same,TGI,[4],12.2 µM
same,TGI,[5],29 µM
same,TGI,[6],27.9 µM
same,TGI,[7],29.4 µM
same,TGI,[8],10.2 µM
same,TGI,[9],20.8 µM
same,TGI,[10],18.6 µM
same,TGI,[11],22.5 µM
same,TGI,[12],23.5 µM
same,TGI,[13],9.04 µM
same,TGI,[14],21.6 µM
same,TGI,[15],21.8 µM
same,TGI,[16],6.44 µM
same,TGI,[17],17.4 µM
same,TGI,[18],18.5 µM
same,TGI,[19],23.6 µM
same,TGI,[20],16.5 µM
same,TGI,[21],18.9 µM
same,TGI,[22],6.26 µM
same,TGI,[23],4.13 µM
same,TGI,[24],22.9 µM
same,TGI,[25],24 µM
same,TGI,[26],21.4 µM
same,TGI,[27],24.6 µM
same,TGI,[28],30 µM
same,TGI,[29],45.1 µM
same,TGI,[30],29.6 µM
same,TGI,[31],25.6 µM
same,TGI,[32],22.8 µM
same,TGI,[33],21 µM
same,TGI,[34],33.6 µM
same,TGI,[35],12.5 µM
same,TGI,[36],20.5 µM
same,TGI,[37],11.1 µM
same,TGI,[38],20.5 µM
same,TGI,[39],22.3 µM
same,TGI,[40],18.7 µM
same,TGI,[41],20.2 µM
same,TGI,[42],29.7 µM
same,TGI,[43],31.3 µM
same,TGI,[44],10.5 µM
same,TGI,[45],28.9 µM
same,TGI,[46],10.6 µM
same,TGI,[47],25.9 µM
same,TGI,[48],26 µM
same,TGI,[49],16.4 µM
same,TGI,[50],12.1 µM
same,TGI,[51],14.9 µM
same,TGI,[52],17.6 µM
same,TGI,[53],24.3 µM
same,TGI,[54],21.7 µM
CCOC(=O)Cn1c(=O)n(C)c(=O)c2c1ncn2Cc1ccccc1,TGI,[1],> 100 µM
same,TGI,[2],> 100 µM
same,TGI,[3],> 100 µM
same,TGI,[55],> 100 µM
same,TGI,[4],> 100 µM
same,TGI,[6],> 100 µM
same,TGI,[8],> 100 µM
same,TGI,[10],> 100 µM
same,TGI,[11],> 100 µM
same,TGI,[12],> 100 µM
same,TGI,[13],> 100 µM
same,TGI,[14],> 100 µM
same,TGI,[15],> 100 µM
same,TGI,[16],> 100 µM
same,TGI,[17],> 100 µM
same,TGI,[18],> 100 µM
same,TGI,[19],> 100 µM
same,TGI,[20],> 100 µM
same,TGI,[21],> 100 µM
same,TGI,[23],> 100 µM
same,TGI,[24],> 100 µM
same,TGI,[25],> 100 µM
same,TGI,[26],> 100 µM
same,TGI,[27],> 100 µM
same,TGI,[28],> 100 µM
same,TGI,[29],> 100 µM
same,TGI,[30],> 100 µM
same,TGI,[31],> 100 µM
same,TGI,[32],> 100 µM
same,TGI,[34],> 100 µM
same,TGI,[36],> 100 µM
same,TGI,[37],> 100 µM
same,TGI,[38],> 100 µM
same,TGI,[39],> 100 µM
same,TGI,[40],> 100 µM
same,TGI,[42],> 100 µM
same,TGI,[43],> 100 µM
same,TGI,[44],> 100 µM
same,TGI,[45],> 100 µM
same,TGI,[46],> 100 µM
same,TGI,[47],> 100 µM
same,TGI,[48],> 100 µM
same,TGI,[49],> 100 µM
same,TGI,[50],> 100 µM
same,TGI,[51],> 100 µM
same,TGI,[56],> 100 µM
same,TGI,[57],> 100 µM
same,TGI,[52],> 100 µM
same,TGI,[53],> 100 µM
same,TGI,[54],> 100 µM
Nc1nc(N)c2cc(CNc3ccc(C(=O)NC(CC(=O)O)C(=O)O)c(Cl)c3)ccc2n1 (stereo not given),GI50,[1],342 µM
same,TGI,[1],> 500 µM
same,GI50,[58],0.05 µM
same,TGI,[58],> 500 µM
same,GI50,[3],71.7 µM
same,TGI,[3],> 500 µM
same,GI50,[59],0.05 µM
same,TGI,[59],> 500 µM
same,GI50,[60],< 0.01 µM
same,TGI,[60],> 500 µM
same,TGI,[55],> 500 µM
same,GI50,[4],0.189 µM
same,GI50,[6],74.7 µM
same,TGI,[6],> 500 µM
same,GI50,[7],0.05 µM
same,TGI,[7],> 500 µM
same,GI50,[8],0.05 µM
same,TGI,[8],> 500 µM
same,GI50,[10],< 0.01 µM
same,TGI,[10],> 500 µM
same,GI50,[11],> 500 µM
same,TGI,[11],> 500 µM
same,GI50,[12],223 µM
same,TGI,[12],> 500 µM
same,TGI,[61],> 500 µM
same,GI50,[13],0.05 µM
same,TGI,[13],> 500 µM
same,GI50,[14],0.05 µM
same,TGI,[14],> 500 µM
same,GI50,[15],0.05 µM
same,TGI,[15],72.6 µM
same,GI50,[16],2.77 µM
same,TGI,[16],> 500 µM
same,GI50,[62],0.05 µM
same,TGI,[62],> 500 µM
same,GI50,[17],0.05 µM
same,TGI,[17],> 500 µM
same,GI50,[19],0.05 µM
same,TGI,[19],> 500 µM
same,GI50,[20],177 µM
same,TGI,[20],> 500 µM
same,GI50,[21],0.05 µM
same,TGI,[21],> 500 µM
same,GI50,[22],> 500 µM
same,TGI,[22],> 500 µM
same,GI50,[24],> 500 µM
same,TGI,[24],> 500 µM
same,GI50,[25],0.05 µM
same,TGI,[25],> 500 µM
same,TGI,[26],> 500 µM
same,GI50,[27],> 500 µM
same,TGI,[27],> 500 µM
same,GI50,[28],> 500 µM
same,TGI,[28],> 500 µM
same,GI50,[29],0.05 µM
same,TGI,[29],> 500 µM
same,TGI,[63],> 77.5 µM
same,GI50,[31],0.05 µM
same,TGI,[31],> 500 µM
same,TGI,[64],> 500 µM
same,GI50,[33],0.05 µM
same,TGI,[33],> 500 µM
same,TGI,[65],> 500 µM
same,GI50,[34],0.05 µM
same,TGI,[34],> 500 µM
same,TGI,[35],> 500 µM
same,GI50,[38],0.05 µM
same,TGI,[38],> 500 µM
same,TGI,[66],> 500 µM
same,GI50,[39],> 500 µM
same,TGI,[39],> 500 µM
same,GI50,[40],0.05 µM
same,TGI,[40],> 500 µM
same,TGI,[41],> 500 µM
same,GI50,[42],0.462 µM
same,TGI,[42],> 500 µM
same,GI50,[43],0.05 µM
same,TGI,[43],> 500 µM
same,TGI,[67],> 500 µM
same,GI50,[45],0.308 µM and 0.05 µM
same,TGI,[45],> 500 µM
same,GI50,[46],0.05 µM
same,TGI,[46],> 31.6 µM and 316 µM
same,GI50,[47],0.244 µM
same,TGI,[47],> 500 µM
same,GI50,[48],0.05 µM
same,TGI,[48],> 500 µM
same,GI50,[49],0.05 µM
same,TGI,[49],> 500 µM
same,TGI,[50],0.0214 µM
same,GI50,[56],0.05 µM
same,TGI,[56],> 500 µM
same,TGI,[57],> 4.64 µM
same,GI50,[68],> 500 µM
same,TGI,[68],> 500 µM
same,GI50,[52],0.05 µM
same,TGI,[52],> 500 µM
same,GI50,[53],0.05 µM
same,TGI,[53],> 500 µM
same,GI50,[54],0.05 µM
same,TGI,[54],64 µM and 491 µM

# Source: PubChem BioAssay (NCI)
